Laboratory results as given in ChEMBL document CHEMBL6120982, “Cell-penetrating anti-sense peptide nucleic acids targeting sulfatase 2 inhibit adipogenesis in human mesenchymal stem cells” (Bioorg Med Chem, 2024).
Activity calls are given as the source filed them. No cut-off for these calls is given here.

How the values were obtained:
Mesenchymal stem cells [1] = test: Inhibition of SULF2 mRNA expression in human BMMSC cells at 0.1 uM by RT-qPCR analysis; type: functional, cell-based
Mesenchymal stem cells [2] = test: Anti-adipogenic activity in insulin/dexamthasone/pioglitazone/IBMX differentiated human BMMSC cells assessed as downregulation of adiponectin protein secretion by ELISA; type: functional, cell-based
Mesenchymal stem cells [3] = test: Anti-adipogenic activity in insulin/dexamthasone/pioglitazone/IBMX differentiated human BMMSC cells assessed as decrease in number of intracellular lipid droplets by Oil red O staining based inverted microscopic analysis; type: functional, cell-based; conditions: dose 0.01-1 µM
Mesenchymal stem cells [4] = test: Cytotoxicity against human BMMSC cells assessed as effect on cell viability upto 1 uM incubated for 24 hrs by CCK8 assay; type: toxicity, cell-based
Mesenchymal stem cells [5] = test: Anti-adipogenic activity in insulin/dexamthasone/pioglitazone/IBMX differentiated human BMMSC cells assessed as decrease in size of intracellular lipid droplets by Oil red O staining based inverted microscopic analysis; type: functional, cell-based; conditions: dose 0.01-1 µM
Mesenchymal stem cells [6] = test: Inhibition of SULF2 mRNA expression in human BMMSC cells by RT-qPCR analysis; type: functional, cell-based; conditions: dose 0.01-1 µM
Mesenchymal stem cells [7] = test: Anti-adipogenic activity in insulin/dexamthasone/pioglitazone/IBMX differentiated human BMMSC cells assessed as downregulation of adiponectin protein secretion at 1 uM by ELISA; type: functional, cell-based
Mesenchymal stem cells [8] = test: Effect on osteogenesis in ascorbic acid/dexamethasone/beta-glycerol phosphate differentiated human BMMSC cells; type: functional, cell-based
DNA [9] = test: Binding affinity to C-terminal of 10-mer c-DNA (unknown origin) assessed as melting temperature at 4 uM by UV-Vis spectrophotometric analysis; type: nucleic-acid assay
DNA [10] = test: Binding affinity to N-terminal of 10-mer c-DNA (unknown origin) assessed as melting temperature at 4 uM by UV-Vis spectrophotometric analysis; type: nucleic-acid assay
DNA [11] = test: Binding affinity to c-DNA (unknown origin) with mismatch bases assessed as increase in melting temperature by UV-vis spectrophotometric analysis; type: nucleic-acid assay
DNA [12] = test: Binding affinity to 10-mer DNA (unknown origin) assessed as melting temperature at 4 uM by UV-Vis spectrophotometric analysis; type: nucleic-acid assay
[13] = Drug penetration in human BMMSC cells assessed as green fluorescence signal at 0.1 uM incubated for 24 hrs by DAPI staining based confocal microscopic analysis; type: ADME, cell-based; conditions: mesenchymal stem cells

| Structure (SMILES) | IC50 (Mesenchymal stem cells [2]) | Tm (DNA [9]) | Tm (DNA [10]) | Activity (DNA [11]) | Tm (DNA [12]) | Drug uptake [13] | inhibition (Mesenchymal stem cells [1]) | Activity (Mesenchymal stem cells [2]) | Activity (Mesenchymal stem cells [3]) | Activity (Mesenchymal stem cells [4]) | Activity (Mesenchymal stem cells [5]) | inhibition (Mesenchymal stem cells [6]) | Activity (Mesenchymal stem cells [7]) | Activity (Mesenchymal stem cells [8]) |
| --- | --- | --- | --- | --- | --- | --- | --- | --- | --- | --- | --- | --- | --- | --- |
| Cc1cn(CC(=O)N(CCNC(=O)CN(CCNC(=O)CN(CCNC(=O)CN(CCNC(=O)CN(CCNC(=O)CN(CCNC(=O)CN(CCNC(=O)CN(CCNC(=O)CN(CCNC(=O)CN(CCNC(=O)CN(CCNC(=O)OCCC2c3ccccc3-c3ccccc32)C(=O)Cn2cc(C)c(=O)[nH]c2=O)C(=O)Cn2cnc3c(=O)[nH]c(N)nc32)C(=O)Cn2cnc3c(=O)[nH]c(N)nc32)C(=O)Cn2cnc3c(N)nc(NCCCCCN)nc32)C(=O)Cn2cnc3c(=O)[nH]c(N)nc32)C(=O)Cn2cnc3c(=O)[nH]c(N)nc32)C(=O)Cn2cnc3c(N)nc(NCCCCCN)nc32)C(=O)CN2C=NC3C(=O)NC(N)=NC32)C(=O)Cn2ccc(N)nc2=O)C(=O)Cn2cnc3c(=O)[nH]c(NCCCCCCN)nc32)CC(=O)NCCN(CC(=O)NCCN(CC(=O)NCCN(CC(=O)NCCN(CC(=O)NCCN(CC(=O)NCCN(CC(=O)NCCN(CC(=O)NCCN(CC(=O)NCCN(N)C(=O)Cn2cnc3c(=O)[nH]c(N)nc32)C(=O)Cn2cnc3c(N)nc(NCCCCCN)nc32)C(=O)Cn2ccc(N)nc2=O)C(=O)Cn2cnc3c(N)ncnc32)C(=O)Cn2cnc3c(N)ncnc32)C(=O)Cn2cnc3c(=O)[nH]c(NCCCCCCN)nc32)C(=O)Cn2cnc3c(=O)[nH]c(N)nc32)C(=O)Cn2cnc3c(N)ncnc32)C(=O)Cn2cnc3c(=O)[nH]c(N)nc32)c(=O)[nH]c1=O (centres undefined) | 280 nM | 64 °C | 68.1 °C |  |  |  | Active | Dose-dependent-effect | Dose-dependent-effect | Non-toxic | Dose-dependent-effect | Dose-dependent-effect | Active | inactive |
| Cc1cn(CC(=O)N(CCNC(=O)CN(CCNC(=O)CN(CCNC(=O)CN(CCNC(=O)CN(CCNC(=O)CN(CCNC(=O)CN(CCNC(=O)CN(CCNC(=O)CN(CCNC(=O)CN(CCNC(=O)CN(CCNC(=O)CN(CCNC(=O)CN(CCNC(=O)CN(CCNC(=O)CN(CCNC(=O)CN(CCNC(=O)CN(CCNC(=O)CN(CCNC(=O)CN(CCNC(=O)OCCC2c3ccccc3-c3ccccc32)C(=O)Cn2ccc(N)nc2=O)C(=O)Cn2cc(C)c(=O)[nH]c2=O)C(=O)Cn2cc(C)c(=O)[nH]c2=O)C(=O)Cn2cc3cc(COCCN)[nH]c3nc2=O)C(=O)Cn2cc(C)c(=O)[nH]c2=O)C(=O)Cn2cc(C)c(=O)[nH]c2=O)C(=O)Cn2cc(C)c(=O)[nH]c2=O)C(=O)Cn2cc(C)c(=O)[nH]c2=O)C(=O)Cn2cc(C)c(=O)[nH]c2=O)C(=O)Cn2cc(C)c(=O)[nH]c2=O)C(=O)Cn2cc(C)c(=O)[nH]c2=O)C(=O)Cn2cnc3c(=O)[nH]c(NCCCCCCN)nc32)C(=O)Cn2ccc(N)nc2=O)C(=O)Cn2cc(C)c(=O)[nH]c2=O)C(=O)Cn2cnc3c(=O)[nH]c(N)nc32)C(=O)Cn2cnc3c(N)nc(NCCCCCN)nc32)C(=O)Cn2cc(C)c(=O)[nH]c2=O)C(=O)Cn2ccc(N)nc2=O)CC(=O)NCCN(CC(N)=O)C(=O)Cn2cnc3c(=O)[nH]c(NCCCCCCN)nc32)c(=O)[nH]c1=O | > 1000 nM | 70 °C |  |  |  |  | Mild_effect |  |  | Non-toxic |  | Dose-dependent-effect | Active | inactive |
| Cc1cn(CC(=O)N(CCNC(=O)CN(CCNC(=O)CN(CCNC(=O)CN(CCNC(=O)CN(CCNC(=O)CN(CCNC(=O)CN(CCNC(=O)CN(CCNC(=O)CN(CCNC(=O)CN(CCNC(=O)CN(CCNC(=O)CN(CCNC(=O)CN(CCNC(=O)CN(CCNC(=O)CN(CCNC(=O)CN(CCNC(=O)CN(CCNC(=O)OCCC2c3ccccc3-c3ccccc32)C(=O)Cn2cnc3c(=O)[nH]c(N)nc32)C(=O)Cn2cnc3c(=O)[nH]c(NCCCCCCN)nc32)C(=O)Cn2cnc3c(=O)[nH]c(N)nc32)C(=O)Cn2ccc(N)nc2=O)C(=O)Cn2cnc3c(N)nc(NCCCCCN)nc32)C(=O)Cn2cnc3c(=O)[nH]c(N)nc32)C(=O)Cn2ccc(N)nc2=O)C(=O)Cn2cnc3c(N)ncnc32)C(=O)Cn2ccc(N)nc2=O)C(=O)Cn2cnc3c(N)nc(NCCCCCN)nc32)C(=O)Cn2cc(C)c(=O)[nH]c2=O)C(=O)Cn2cnc3c(=O)[nH]c(N)nc32)C(=O)Cn2cnc3c(=O)[nH]c(N)nc32)C(=O)Cn2cnc3c(=O)[nH]c(NCCCCCCN)nc32)C(=O)Cn2cc(C)c(=O)[nH]c2=O)C(=O)Cn2cnc3c(=O)[nH]c(N)nc32)CC(N)=O)c(=O)[nH]c1=O | > 1000 nM | 75.5 °C | 83.5 °C |  |  |  | Active |  |  | Non-toxic |  | Dose-dependent-effect | Active | inactive |

Further lines, with some results ahead:

| IC50 (Mesenchymal stem cells [2]) | Tm (DNA [9]) | Tm (DNA [10]) | Activity (DNA [11]) | Tm (DNA [12]) | Drug uptake [13] | Structure (SMILES) | inhibition (Mesenchymal stem cells [1]) | Activity (Mesenchymal stem cells [2]) | Activity (Mesenchymal stem cells [3]) | Activity (Mesenchymal stem cells [4]) | Activity (Mesenchymal stem cells [5]) | inhibition (Mesenchymal stem cells [6]) | Activity (Mesenchymal stem cells [7]) | Activity (Mesenchymal stem cells [8]) |
| --- | --- | --- | --- | --- | --- | --- | --- | --- | --- | --- | --- | --- | --- | --- |
|  |  |  | inactive | 73.6 °C |  | NCCCCCNc1nc(N)c2ncn(CC(=O)N(CCNC(=O)CN(CCNC(=O)CN(CCNC(=O)CN(CCN)C(=O)Cn3cnc4c(N)ncnc43)C(=O)Cn3cnc4c(=O)[nH]c(N)nc43)C(=O)Cn3ccc(N)nc3=O)CC(=O)NCCN(CC(=O)NCCN(CC(=O)NCCN(CC(=O)NCCN(CC(=O)NCCN(CC(=O)NCCN(CC(N)=O)C(=O)Cn3cnc4c(N)ncnc43)C(=O)Cn3ccc(N)nc3=O)C(=O)Cn3cnc4c(N)nc(NCCCCCN)nc43)C(=O)Cn3cnc4c(=O)[nH]c(N)nc43)C(=O)Cn3cnc4c(N)nc(NCCCCCN)nc43)C(=O)Cn3ccc(N)nc3=O)c2n1 |  |  |  |  |  |  |  |  |
|  |  |  |  |  | Active | O=C(O)c1ccc2c(c1)C(=O)OC21c2ccc(O)cc2Oc2cc(O)ccc21 |  |  |  |  |  |  |  |  |
